biological target: T1, Prolyl endopeptidase (Rattus norvegicus, UniProt O70196); experiment: Inhibitory activity against rat brain Prolyl endopeptidase (PEP)
T1 sequence (O70196 whole entry): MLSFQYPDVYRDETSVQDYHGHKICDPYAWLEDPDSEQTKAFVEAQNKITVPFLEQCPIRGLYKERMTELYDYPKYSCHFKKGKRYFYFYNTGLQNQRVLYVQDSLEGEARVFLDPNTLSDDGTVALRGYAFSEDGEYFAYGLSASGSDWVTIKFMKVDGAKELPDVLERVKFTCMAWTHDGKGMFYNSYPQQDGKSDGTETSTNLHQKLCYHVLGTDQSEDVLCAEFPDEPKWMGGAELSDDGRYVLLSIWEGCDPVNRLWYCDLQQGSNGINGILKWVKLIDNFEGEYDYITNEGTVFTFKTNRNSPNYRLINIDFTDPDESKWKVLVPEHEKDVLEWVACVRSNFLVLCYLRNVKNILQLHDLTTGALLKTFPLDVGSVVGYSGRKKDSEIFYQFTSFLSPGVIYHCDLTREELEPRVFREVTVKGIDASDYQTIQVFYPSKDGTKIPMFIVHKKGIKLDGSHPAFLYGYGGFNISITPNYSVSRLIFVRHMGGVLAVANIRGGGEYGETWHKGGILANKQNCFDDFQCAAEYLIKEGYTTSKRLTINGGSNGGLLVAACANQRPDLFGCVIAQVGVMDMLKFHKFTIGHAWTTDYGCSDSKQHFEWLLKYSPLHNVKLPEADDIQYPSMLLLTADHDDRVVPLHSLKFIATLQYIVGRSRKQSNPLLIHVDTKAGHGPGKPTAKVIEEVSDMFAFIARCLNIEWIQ

| Compound | IC50 [nM] |
| --- | --- |
| CCCCC/C=C(\C)C(=O)N1CCC[C@H]1C(=O)N1CCCC1 | 73 |
| CCCCCCCC(=O)N1CSC[C@H]1C(=O)N1CCCC1 | 11 |
| CCCCCCCCC=CCCCCCCCC(=O)N1CSC[C@H]1C(=O)N1CCCC1 | 104 |
| CCCC(=O)N1CSC[C@H]1C(=O)N1CCCC1 | 167 |
| CCCCCCCCCCCCCCCCCCCC(=O)N1CSC[C@H]1C(=O)N1CCCC1 | 1160 |
| CCCCCCCCCCC(=O)N1CSC[C@H]1C(=O)N1CCCC1 | 42 |
| CCCCCCCCCCCCCCCC(=O)N1CSC[C@H]1C(=O)N1CCCC1 | 216 |

Further lines, results first:

| IC50 [nM] | Compound |
| --- | --- |
| 38 | CCCCCCCCC(=O)N1CSC[C@H]1C(=O)N1CCCC1 |
| 34 | CCCCC/C=C/C(=O)N1CCC[C@H]1C(=O)N1CCCC1 |
| 17 | CCCCCCC(=O)N1CSC[C@H]1C(=O)N1CCCC1 |
| 37 | CCCCC(=O)N1CSC[C@H]1C(=O)N1CCCC1 |
| 207 | CCC/C=C/C=C(\C)C(=O)N1CCC[C@H]1C(=O)N1CCCC1 |
| 38 | CCCCCCCCCC(=O)N1CSC[C@H]1C(=O)N1CCCC1 |
| 80 | CCCCCCCCCCCCCC(=O)N1CSC[C@H]1C(=O)N1CCCC1 |
| 46 | CCCCCCCCCCCC(=O)N1CSC[C@H]1C(=O)N1CCCC1 |
| 37 | CCCCCC(=O)N1CSC[C@H]1C(=O)N1CCCC1 |
| 904 | CCCCCCCCCCCCCCCCCC(=O)N1CSC[C@H]1C(=O)N1CCCC1 |

Source: ChEMBL document CHEMBL1130469, “Prolyl endopeptidase inhibitors1: N-acyl derivatives of L-thioproline-pyrrolidine” (Bioorg Med Chem Lett, 1997)
